Experimental data reported in article PMC12731105, “Design and Synthesis of New Quinoxaline Analogs to Regenerate Sensory Auditory Hair Cells” (Cells, 2025).
Where two headings read alike, the source gives them in different places.

Columns and labels:
PAMPA permeability assay = type: in vitro ADME
Method: The parallel artificial membrane permeability assay (PAMPA), an artificial membrane that simulates a biological membrane, was used. A 96-well membrane filter-based microtiter plate system with donor and acceptor compartments separated by the membrane was employed. The compounds were dissolved in 5% DMSO in phosphate-buffered saline (PBS) solution with Lucifer yellow, a dye used to assess membrane integrity. The solution was placed in the donor well, and PBS was added to the acceptor well. The membrane was generated by dissolving lecithin in an inert organic solvent and placed onto a hydrophobic PVDF filter.

[1] = Cytotoxicity, MTT colorimetric microculture assay; type: cell-based; details: mouse, HEI-OC1 cells (auditory cell line), NCI criterion of cytotoxicity IC50 < 20 μg/mL
Method: The cytotoxicity of Qx-294 and Qx-301 compounds was assessed in the mouse auditory HEI-OC1 cell line using the (MTT) colorimetric microculture assay method as previously described. HEI-OC1 cells were cultured in DMEM (Corning, NY, USA, 10-013-CVC) supplemented with 10% fetal bovine serum (FBS) (Pansera) and 50 μg/mL ampicillin for 12 h. For cytotoxic assessment, increasing concentrations of Qx-294 and Qx-301 were added to a HEI-OC1 cell suspension (5 × 10^4 cells/well). Cell growth was determined 72 h later by adding 50 µL of MTT (2.5 mg/mL). This was reduced by mitochondrial dehydrogenase of viable cells in an insoluble blue formazan product during the 4 h contact period at 37 °C. After the supernatant was removed, the formazan crystals were solubilized by adding DMSO (100 µL). These plates were read at 570 nm with SpectraMax® M Series Multi-Mode Microplate Reader with Soft Max Pro 7.2 GxP Software (Molecular Devices, Sunnyvale, CA, USA). At each dose level of the compounds tested, as well as the untreated (vehicle-only) controls, absorbance values were recorded and compared between different treatment and time points to assess cell growth and viability.

HEI-OC1 cells = assay: TACS MTT cell proliferation / metabolic activity assay in HEI-OC1; type: cell-based, mouse; details: for Metabolic activity throughout all concentrations: 0.1–100 μM, throughout all concentrations and cell lines; for Proliferative effect vs Qx-70 and untreated cells: HEI-OC1, TACS MTT
Method: (§1) HEI-OC1 cells derived from the mouse OC (kindly provided by Dr. F. Kalinec) were cultured under permissive conditions (33 °C, 10% CO2) as described in [22]. Additionally, we assessed the activity of Qx-derived compounds in the mouse neuroblastoma cell line, Neuro-2A, and the human fibrosarcoma HT-1080 (ATCC, Manassas, VA, USA) following the standard cell culture guidelines provided by the vendor.
(§2) In vitro cell proliferation effects of all ten initial compounds (Figure 1A,B) were tested on HEI-OC1, Neuro-2A and HT-1080 cells by TACS® 3-(4,5-dimethylthiazol-2-yl)-2,5-diphenyltetrazolium bromide (MTT) Cell Proliferation Assay (R&D Systems, Minneapolis, MN, USA, 4890-025-K), following the manufacturer’s protocol. Absorbance was measured with SpectraMax® M Series Multi-Mode Microplate Reader with Soft Max Pro 7.2 GxP Software (Molecular Devices, Sunnyvale, CA, USA), and the average OD in control cells was taken as 100% of viability. Upon selecting the most viable compounds (Qx-294 and Qx-301), we proceeded with in vivo experiments. For zebrafish treatment, animals were incubated for varied times with different concentrations (50, 100, 150, 200, 250, and 300 μg/mL) of Qx-294 or Qx-301 diluted in swimming (E3) media or administered via IP injections. Mice treatment followed the same procedures as described in [18]. Following treatment, animals or tissue samples were incubated in Click-it EdU or Click-it Plus TUNEL kits (Thermo Scientific, Waltham, MA, USA), following the manufacturer’s instructions to label proliferating and apoptotic cells, respectively.

Neuro-2A = assay: TACS MTT cell proliferation / metabolic activity assay in Neuro-2A; type: cell-based, mouse; details: 0.1 to 100 μM
Method: as §1, §2

[2] = test system: zebrafish neuromast cells; assay: TUNEL assay in zebrafish neuromasts; type: in vivo, zebrafish (Danio rerio); details: 6 h incubation, any concentration tested
Method: Absorbance was measured with SpectraMax® M Series Multi-Mode Microplate Reader with Soft Max Pro 7.2 GxP Software (Molecular Devices, Sunnyvale, CA, USA), and the average OD in control cells was taken as 100% of viability. […] Mice treatment followed the same procedures as described in [18]. Following treatment, animals or tissue samples were incubated in Click-it EdU or Click-it Plus TUNEL kits (Thermo Scientific, Waltham, MA, USA), following the manufacturer’s instructions to label proliferating and apoptotic cells, respectively.

zebrafish neuromast SCs = assay: EdU proliferation assay in zebrafish neuromasts; type: in vivo, zebrafish (Danio rerio); details: p < 0.05; for Number of proliferating (EdU-positive) cells per neuromast vs control: zebrafish, 50–300 μg/mL, 24 h post-treatment
Method: as §2
Cell numbers in mouse cochleae or fish, as well as fish neuromast morphologies, were evaluated in 25 zebrafish per drug and treatment group across three experimental runs. […] Images were analyzed at 200X magnification, obtained from different neuromasts and cochlear regions (apex, middle, and base). HCs were quantified in the mouse OC by counting M7a-positive cells, with HC identity further confirmed by phalloidin-labeled stereocilia. Apoptosis and cell proliferation events, on the other hand, were quantified by counting TUNEL- and EdU-positive cells, respectively. […] The number of HCs (IHCs and OHCs) is expressed as units per 200 μm. […] IHCs and OHCs were counted on reconstructed confocal stacks using NIH ImageJ v1.8.0 software. […] Reliability statistics were calculated in SPSS v22.0. […] Fluorescence incorporation following treatment with FM1-43 was quantified according to [19] using ImageJ. […]

Row | SMILES | Permeability (PAMPA permeability assay; 16 h incubation) | Papp at 16 h (PAMPA permeability assay; read-out: PAMPA permeability) | IC50 at 72 h [1] | Metabolic activity throughout all concentrations (HEI-OC1 cells) | Proliferative effect vs Qx-70 and untreated cells (HEI-OC1 cells) | Proliferative state across all tested concentrations (Neuro-2A) | Apoptosis (TUNEL) in neuromasts [2] | Number of proliferating (EdU-positive) cells per neuromast vs control (zebrafish neuromast SCs) | Papp at 16 h (PAMPA permeability assay; 16 h incubation, read-out: Permeability) | Number of EdU-positive SCs compared between the two compounds (zebrafish neuromast SCs; zebrafish neuromasts, Two-Way ANOVA with Bonferroni correction)
1 | c1ccc2nc(N3CCOCC3)cnc2c1 [Qx-294, 2-(morpholine)-quinoxaline] | 3.5 ± 3.0 ×10^−6 cm/s^−1 | ~3.5 ×10⁻⁶ cm/s | > 20 µg/mL | elevated yet stable metabolic activity | significant and reproducible proliferative effects greater than those of Qx-70 and the untreated cells | modest yet active proliferative state | no signs of apoptosis | significantly higher number of proliferating cells than the control groups | – | –
2 | c1ccc2nc(N3CCCC3)cnc2c1 [Qx-301, 2-(pyrrolidine)-quinoxaline] | – | – | > 20 µg/mL | elevated yet stable metabolic activity | significant and reproducible proliferative effects greater than those of Qx-70 and the untreated cells | modest yet active proliferative state | no signs of apoptosis | significantly higher number of proliferating cells than the control groups | 0.77 ± 0.91 ×10⁻⁶ cm/s | significantly higher for Qx-301- than for Qx-294-treated neuromasts
